How the values were obtained:
[1] = Stability in cell culture medium by HPLC; assay type: physicochemical
Description: (§1) In a preliminary test, the stability of all compounds dissolved in the cell medium (c = 100 μM, T = [drawing 47] ) for 72 h was validated by HPLC (see Supporting Information). Cell lines were incubated with the respective compounds in a concentration range of 1.56–100 μM for 72 h, and cell viability was measured using 3-(4,5-dimethylthiazol-2-yl)-2,5-diphenyltetrazolium bromide (MTT) and crystal violet (CV) assays. […] As MTT tests gave inconsistent results, possibly due to interference of the compound with mitochondrial respiration, for the further evaluation only the CV results are considered[97],[98].
Selg et al. Supp. Information
2 Stability Tests for Compound 3
In a 1 mL Eppendorf vial, 10 μL (0.05 μmol) of a freshly prepared 5 mM stock solution of compound 3 in DMSO was mixed with 490 μL of DMEM (Dulbecco's Modified Eagle Medium) containing 10% of fetal bovine serum and stored in an incubation oven at 40 °C for a total 72 hours. After 0, 24 and 72 hours, a 50 μL sample was collected from the mixture and diluted with 250 μL acetonitrile in a 500 μL Eppendorf vial to precipitate the proteins. The mixture was vortexed for 30 s before it was centrifuged for 20 min at 15,000 min-1 and 4 °C. […]
Figure S 2. […] Samples measured at 0, 24 and 72 hours (top to bottom) including the mass spectrum (right) and integration data (bottom). […]

[2] = tested on: HCT116 cells; assay: Crystal violet (CV) viability assay, HCT116; assay type: cell-based, human; conditions: 72 h, mean±SD; read-out: IC50 [μM] (n = 3) HCT116 CV
Description: as §1
The biological study was performed on a murine colon adenocarcinoma cell line (MC38), two human colorectal carcinoma cell lines (HCT116 and HT29), and a human fetal lung fibroblast cell line (MRC-5). All cell lines are commercially available and were obtained from the American Type Culture Collection (ATCC). The human cell lines were kept in HEPES-buffered RPMI-1640 medium supplemented with 10 [drawing 141] heat-inactivated FCS, 2 mM L-glutamine, 0.01 [drawing 142] sodium pyruvate, penicillin (100 units mL^−1), and, streptomycin ( [drawing 143] mL^-1). The MC38 cell line was maintained in DMEM medium additionally supplemented with 1 [drawing 144] non-essential amino acids. Cells were grown at [drawing 145] in a humidified atmosphere with 5 [drawing 146] [drawing 147] . Peritoneal exudate cells (PECs) were isolated from healthy C57BL/6 mice (males, n = 3, 3 months old, weight 22–25 g) by performing an ice-cold PBS peritoneal lavage. Mice were sacrificed by cervical dislocation. Cells were cultivated for 4 h when nonadherent population was removed by washing in PBS, and additionally cultivated overnight in HEPES-buffered RPMI-1640 medium supplemented with 5 [drawing 148] heat-inactivated FCS before treatment with experimental drugs. Animal handling and protocol for isolation of PECs were performed according to European Union rules, and the ARRIVE guidelines 2.0.
For the viability tests, MC38, HCT116, and HT29 cells were seeded in 96-well plates at a density of 2 [drawing 149] 103, 5 [drawing 150] 103, and 6 [drawing 151] 10^3 cells/well, respectively. To determine whether the drug affected the viability of healthy, non-malignant cells, MRC-5 and PECs were seeded in 96-well plates at a density of 8 [drawing 152] 103 and 2 [drawing 153] 10^5 cells/well, respectively. For the flow cytometric analyses, MC38 cells were seeded in 6-well plates at 5 [drawing 154] 10^4 cells/well. For morphological assessment of nuclei and the detection of autophagy, MC38 cells were seeded in 2-well chamber slides at 1.5 [drawing 155] 10^4 cells/well.
After 72 h, cell viability was determined using MTT and CV tests. First, the supernatant from the wells was discarded and the cells were incubated with an MTT solution (0.5 mg mL^−1). After half an hour, the purple formazan crystals formed were dissolved in DMSO. For CV staining of the cells, the cells were fixed with 4 [drawing 157] PFA for 10 min and then stained with a 0.02 [drawing 158] CV solution for 15 min, all at room temperature (RT). The cells were then washed with tap water, air-dried and the dye was dissolved in 33 [drawing 159] acetic acid. For both viability tests, the absorbance of the developed colors was measured using an automated microplate reader at 570 nm with a reference wavelength of 670 nm. The results were expressed as a percentage of the control values of the untreated cells, which were arbitrarily set at 100 [drawing 160] . IC50 values, defined as 50 [drawing 161] inhibitory concentration, were calculated using a four-parameter logistic function and presented as mean±SD. All biological experiments were performed in triplicates. To evaluate the nature of the detected autophagy, a combined treatment with compound 3 and the autophagy inhibitors chloroquine (Chlq) and 3-methyladenine (3-MA) was carried out. […] After 72 h, cell viability was determined by CV assay.

[3] = target: T1, ovine COX-1 (Ovis aries, UniProt P05979); assay: COX Fluorescent Inhibitor Screening Assay, COX-1; assay type: biochemical; conditions: absolute IC50, 0.1 to 100 μM in duplicate, 95% CI in brackets
T1 construct: purchased Cayman Chemical Company, Ann Arbor, MI, USA
T1 sequence (P05979 25-600): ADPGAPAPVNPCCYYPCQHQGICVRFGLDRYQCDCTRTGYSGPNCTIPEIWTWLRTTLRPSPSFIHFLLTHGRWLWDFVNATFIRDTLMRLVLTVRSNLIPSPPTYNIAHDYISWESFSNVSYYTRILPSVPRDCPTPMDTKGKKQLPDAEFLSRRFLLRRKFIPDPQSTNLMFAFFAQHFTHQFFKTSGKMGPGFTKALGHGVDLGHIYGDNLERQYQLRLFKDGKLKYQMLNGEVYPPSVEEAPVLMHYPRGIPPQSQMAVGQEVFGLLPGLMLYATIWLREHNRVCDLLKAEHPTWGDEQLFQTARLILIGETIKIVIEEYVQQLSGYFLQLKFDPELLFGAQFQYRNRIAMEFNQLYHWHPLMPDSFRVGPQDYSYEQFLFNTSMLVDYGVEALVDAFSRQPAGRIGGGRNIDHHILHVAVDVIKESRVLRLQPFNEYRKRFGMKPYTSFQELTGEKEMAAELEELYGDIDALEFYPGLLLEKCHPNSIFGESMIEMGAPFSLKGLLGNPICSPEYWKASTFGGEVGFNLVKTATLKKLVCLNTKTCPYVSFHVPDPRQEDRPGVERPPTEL
Description: The COX inhibition activity against ovine COX-1 and human recombinant COX-2 was determined using the COX Fluorescent Inhibitor Screening Assay Kit (Cayman Chemical Company, Ann Arbor, MI, USA) according to the manufacturer’s instructions as reported.

## 1-[2-(7,8-dicarba-nido-undecaborate)]- [drawing 126] H-indolium-2-amine [compound 3]
[1]; 100 μM, 72 h, compound 3: DMEM with 10% fetal bovine serum, 40 °C, 0, 24 and 72 hours
  stability in cell medium by HPLC: no signs of decomposition
[1]; DMEM with 10% fetal bovine serum, 40 °C, 72 hours
  purity (relative area of integrals) after 72 hours in culture medium: above 95%
[2]
  IC50: 11.5 ± 1 µM
[3]
  IC50: 15.3 µM
